Tests used:
Assay type in all cases: cell-based, dogs
[1] = system: black pigmenting colonies (BPC); experiment: Canine plate biofilm assay (PBA): bacterial viable counts, black pigmenting colonies; details: extracts at 500 μg/ml, counted after 9 days, vs controls
Protocol: (§1) The assay requires fresh supragingival canine dental plaque and saliva for inoculation. The inoculum consists of pooled dental plaque and unfiltered saliva sampled from a group of 14 dogs, varying in age, breed and oral health status.
(§2) The plaque and saliva were resuspended in artificial saliva to form the inoculum of approximately 15% plaque and 30% saliva.
(§3) The plate biofilm assay (PBA) utilises a 24 well plate format in which biofilms, representative of canine dental plaque, are grown on hydroxyapatite (HA) discs. Prior to being introduced to the 24 well assay plate, each HA disc is preconditioned for 2 hours in a solution of 50% filter sterilised canine saliva in artificial canine saliva. […] Each HA disc, with the exception of those being used for biomass quantification, is placed into 500 μl PBS and vortex mixed for 30 seconds to remove biofilm growth from the disc into solution. […] Biofilm-covered HA discs that are being used for biomass quantification are removed from the 24 well assay plate and used directly in the crystal violet assay.
(§4) Viable numbers of bacteria were quantified using Columbia blood agar plates supplemented with haemin and menadione. Aerobes were counted after incubation for 2 days and anaerobes, including black pigmenting colonies (BPC), were counted after incubation at appropriate conditions for 9 days. […]

anaerobes = experiment: Canine plate biofilm assay (PBA): bacterial viable counts, anaerobes; details: extracts at 500 μg/ml, counted after 9 days, vs controls
Protocol: as §1, §2, §3, §4

[2] = system: biofilms representative of canine dental plaque; experiment: Canine plate biofilm assay (PBA): biomass quantification (crystal violet assay); details: 48 hours, extracts at 500 μg/ml, OD595 vs no active controls
Protocol: as §1, §2
as §3, with “saliva. The preconditioning step stimulates the formation of a salivary pellicle on the HA disc surface.” for “saliva.”
The total amount of biofilm grown on the HA discs was quantified using the crystal violet staining method. Biomass was represented as being directly proportional to the OD reading at 595 nm (OD595) of the samples compared to controls. […]

[3] = system: Trypsin-like protease activity; experiment: Canine plate biofilm assay (PBA): protease activity (liquid BAPNA assay); details: 48 hours, extracts at 500 μg/ml, vs controls
Protocol: as §1, §2
as §3, with “saliva. The preconditioning step stimulates the formation of a salivary pellicle on the HA disc surface.” for “saliva.”
Trypsin-like protease activity was measured using the liquid BAPNA assay, a colourimetric assay in which the amount of trypsin present in a sample is directly proportional to the intensity of the colour developed. […]

Aerobes = experiment: Canine plate biofilm assay (PBA): bacterial viable counts, aerobes; details: extracts at 500 μg/ml, counted after 2 days, vs controls
Protocol: as §1, §2, §3, §4

SMILES: [H]/N=C(\N/C(=N/[H])NCCCCCCNC(=N)NC(=N)Nc1ccc(Cl)cc1)Nc1ccc(Cl)cc1 [Chlorhexidine, chlorhexidine]
- BPC (Log 10 reduction) [1]: 2.74 Log 10 reduction
- Anaerobe (Log 10 reduction) (anaerobes): 2.48 Log 10 reduction
- Biomass (% reduction) [2]: 94.40%
- Protease (% reduction) [3]: 95.76%
- Aerobe (log 10 reduction) (Aerobes): 2.87 log 10 reduction
